Data published in patent US20140221324A1, “COMPOSITION FOR THE REDUCTION OF DRIP LOSSES IN PORK” (DSM IP ASSETS B.V., priority 2008, published 2014).

How the values were obtained:
Assay type in all cases: in vivo, pig (Large-White x Landrace)
[1] = test system: ilio-spinalis (longissimus dorsi) muscle; assay: pH of the ilio-spinalis (longissimus dorsi) muscle at slaughter and after 24 h storage; conditions: for pH after 24 h / pH at slaughter: ilio-spinalis muscle, mean ± SD of 20 determinations; for pH after 24 h: after 24 hours storage at +4° C.; for pH at slaughter: measured immediately; for pH after 24 h, value in brackets relative to group A (100) / pH at slaughter, value in brackets relative to group A (100): index
Description: (§1) Fifty 28-d old Large-White x Landrace weaner piglets having an initial body weight of 7.9±0.74 kg were used. The animals were allocated into two equal groups (A and B) and housed in cages in sub-groups (two of 8 and one of 9 animals) in an environmentally controlled room. […] Room temperature was initially 27° C. and was lowered weekly by about 2° C. until 21-22° C. Environment humidity percentage throughout the experiment was 50%. The experiments were performed in the facilities of the Centre de Recherche en Nutrition Animate (CRNA), DSM Nutritional Products France, BP 170, 68305 Saint-Louis cedex, France. They have been performed according to the French legal regulations on experiments with live animals.
(§2) Each group of animals was fed either a basal diet with the addition of 2000 IU/kg of vitamin D3 (group A) or the basal diet, without vitamin D3, and supplemented with 50 μg/kg of 25-hydroxycholecalciferol (Rovimix® Hy•D® commercially available from DSM Nutritional Products) (group B).
(§3) At the end of the post-weaning phase the twenty heaviest animals of each group were used for the growing-fattening period. […] Room temperature was 21-22° C. and humidity percentage was 50%.
(§4) The pigs were fed for 87 days a diet supplemented either with 2000 IU/kg of vitamin D3 (group A, animals ingesting during the post-weaning phase 2000 U/kg) or with 50 μg/kg of 25-hydroxycholecalciferol (group B, animals ingesting during the post-weaning phase 50 μg/kg). The basal diet (Table 2) was formulated to meet the animals' requirements according to Henry et al. 1989 In: L'alimentation des animaux domestiques—pore, lapin, volailles INRA), 2ème édition, INRA, Paris, 49-76 and NRC, 1998. Nutrient requirements of swine, 10th revised edition, National Academic Press. Washington DC, U.S.A.
(§5) In one of the mid-carcass, the entire ilio-spinalis muscle (longissimus dorsi) was dissected. Each muscle was weighed and pH was measured immediately and after 24 hours storage at +4° C. The muscles were individually conditioned into inflated plastic bags for water recovery during storage. Percentage of drip loses from muscles was estimated by weight difference and water recovery.
(§6) Statistical treatment of the results involved the calculation of the mean and the standard deviation of the mean as well as a two-factor hierarchical analysis of variance at 95% confidence level.

growing-fattening pig [2] = assay: Carcass cold yield after long-term dietary supplementation of growing-fattening pigs; conditions: for carcasses' cold yield, value in brackets relative to group A (100): index, group A (2000 IU/kg D3) = 100; for carcasses' cold yield: pigs fed supplemented diet (2000 IU/kg D3 or 50 μg/kg 25-OH D3), carcass weighed after 24 h at +4° C., mean ± SD of 20 determinations
Description: as §1, §2, §3, §4
At the end of the experiment, all animals were randomly divided into four different lots and assigned to one slaughter campaign: days 84th, 85th, 86th and 87th. Animals of each lot were fasted for 12 hours and weighed just before they were slaughtered after tranquilization and stunning. The carcasses were sawed longitudinally following the spinal canal and weighed after 24 hours storage at +4° C. to estimate the carcasses' cold yield.
as §6

[3] = test system: ilio-spinalis (longissimus dorsi) muscle; assay: Drip losses of the ilio-spinalis (longissimus dorsi) muscle; conditions: for Drip loss by water recovery / Drip loss by weight difference: ilio-spinalis muscle, mean ± SD of 20 determinations; for Drip loss by water recovery: 24 h storage at +4° C. in plastic bags; for Drip loss by weight difference: 24 h storage at +4° C.; for Drip loss by water recovery, value in brackets relative to group A (100) / Drip loss by weight difference, value in brackets relative to group A (100): index
Description: as §1, §2, §3, §4, §5, §6

growing-fattening pig [4] = assay: Carcass lean/fat ratio after long-term dietary supplementation of growing-fattening pigs; conditions: for carcasses' lean/fat ratio, value in brackets relative to group A (100): index, group A (2000 IU/kg D3) = 100; for carcasses' lean/fat ratio: pigs fed supplemented diet (2000 IU/kg D3 or 50 μg/kg 25-OH D3), mean ± SD of 20 determinations
Description: as §1, §2, §3, §4
In the second mid-carcass lean and fat were measured at three different points with a caliper square tool. Muscular depth was measured after dissection of the ilio-spinalis muscle (longissimus dorsi) at the level of the 4th dorsal vertebrae. The sub-cutaneous back fat deposition was measured at the levels of the 4th dorsal and lumbar vertebras. These measures were used to estimate the carcasses' lcan/fat ratio.
as §6

[5] = dietary supplementation vs. vitamin D3 control group

SMILES: C=C1CC[C@H](O)C/C1=C/C=C1\CCC[C@]2(C)[C@@H]([C@H](C)CCCC(C)(C)O)CC[C@@H]12 [25-OH D3, 25-hydroxycholecalciferol]
- pH values immediately after slaughter and after 24 hours storage compared to control group (in words) ([1]; ilio-spinalis muscle segments): similar
- pH after 24 h [1]: 5.51 ± 0.04
- pH at slaughter [1]: 5.89 ± 0.16
- pH after 24 h, value in brackets relative to group A (100) [1]: (100)
- pH at slaughter, value in brackets relative to group A (100) [1]: (101)
- effect on the cold yield of the carcasses (in words) (growing-fattening pig [2]; [5]): no positive effects
- carcasses' cold yield, value in brackets relative to group A (100) (growing-fattening pig [2]): (99)
- carcasses' cold yield (growing-fattening pig [2]): 81.11 ± 1.71 % of live weight
- Drip loss by water recovery [3]: 0.45 ± 0.23%
- Drip loss by weight difference [3]: 1.51 ± 0.28%
- Drip loss by water recovery, value in brackets relative to group A (100) [3]: (58)
- Drip loss by weight difference, value in brackets relative to group A (100) [3]: (78)
- mass lost from muscular segments (in words) ([3]; vs. control group): less mass was lost
- water volumes recovered from muscular segments (in words) ([3]; vs. control group): clearly smaller water volumes were recovered
- effect on the lean/fat ratio of the carcasses (in words) (growing-fattening pig [4]; [5]): no positive effects
- carcasses' lean/fat ratio, value in brackets relative to group A (100) (growing-fattening pig [4]): (99)
- carcasses' lean/fat ratio (growing-fattening pig [4]): 67.70 ± 2.99%

SMILES: C=C1CC[C@H](O)C/C1=C/C=C1\CCC[C@]2(C)[C@@H]([C@H](C)CCCC(C)C)CC[C@@H]12 [D3, vitamin D3]
- pH after 24 h [1]: 5.49 ± 0.05^(1)
- pH at slaughter [1]: 5.85 ± 0.21^(1)
- pH after 24 h, value in brackets relative to group A (100) [1]: (100)
- pH at slaughter, value in brackets relative to group A (100) [1]: (100)
- carcasses' cold yield, value in brackets relative to group A (100) (growing-fattening pig [2]): (100)
- carcasses' cold yield (growing-fattening pig [2]): 81.85 ± 0.76^(1) % of live weight
- Drip loss by water recovery [3]: 0.78 ± 0.74^(1) %
- Drip loss by weight difference [3]: 1.94 ± 0.85^(1) %
- Drip loss by water recovery, value in brackets relative to group A (100) [3]: (100)
- Drip loss by weight difference, value in brackets relative to group A (100) [3]: (100)
- carcasses' lean/fat ratio, value in brackets relative to group A (100) (growing-fattening pig [4]): (100)
- carcasses' lean/fat ratio (growing-fattening pig [4]): 68.42 ± 2.26^(1) %
